The results in this text go back to patent publication US12421257B2, “Compositions and methods for inhibiting group II intron RNA” (YALE UNIVERSITY, priority 2018, dated 2025).

In brackets after ≈: the same amount, converted by molar mass. Like-named read-outs stand apart in the source and are kept apart here.

The test system of test [1] is ai5γ group II intron (D135 ribozyme). Briefly: Fluorescent D135 ribozyme cleavage assay (IC50). In kind it is biochemical, Saccharomyces cerevisiae. The following applies: for IC50: D135 ribozyme cleavage of substrate 17/2 DL, 100 mM MgCl2, 500 mM KCl, 37° C., 10 minutes; for In vitro inhibitory activity, SAR statement (in words): relative to parent scaffold. A digest of the protocol:
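D135 ribozyme (20 nM) with double-labeled substrate 17/2 DL (20 nM) in 50 mM MOPS pH 7.0, 100 mM MgCl2, 0.5 M KCl; 19 inhibitor concentrations, 5 nM–1 mM, 10 min at 37 °C, EDTA quench, fluorescence read. Triplicates fit to 4-parameter logistic for IC50; mean±s.e.m.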

The target of test [2] is ai5γ group II intron. Put plainly: Radioanalytic self-splicing assay of SE RNA (Ki). It is filed as biochemical, Saccharomyces cerevisiae. The following applies: 8 mM MgCl2, 100 mM KCl, pH 7.5, 30° C. A digest of the protocol:
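Internally labeled SE RNA (2 nM) self-spliced with varying inhibitor in 50 mM MOPS pH 7.5, 8 mM MgCl2, 100 mM KCl at 30° C; time points resolved on 5% denaturing PAGE. kobs from single-exponential fits, Ki from non-competitive model kobs=kmax/(1+[I]/Ki); mean±s.e.m. of 2–4 runs.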

Test [3] has as its system S. cerevisiae. Briefly: Yeast respiration assay in S. cerevisiae (MIC in YPD / YPGE). In kind it is cell-based, Saccharomyces cerevisiae. The conditions noted are these: Saccharomyces cerevisiae, 30° C. As to the method: Yeast respiration assays were conducted either in liquid YPD media (BD Bacto Yeast Extract, BD Bacto Peptone, 2% glucose) or in YPGE media (BD Bacto Yeast Extract, BD Bacto Peptone, 3% glycerol, 3% ethanol), essentially as described for the antifungal MIC assays (see below). To initiate these experiments, 100 μl of a fresh stock solution was prepared for each compound (3.2 mg/ml for Amphotericin B and 12.8 mg/ml for each test compounds) in DMSO. This concentrated stock solution was placed in the first well of 12-well row on a 96-well plate. The subsequent nine wells in this row contained 50 μl of DMSO for serial dilution. From the first well, 50 μl of the compound stock was withdrawn, transferred to the second well and mixed. This process was repeated from the second and subsequent wells, resulting in a 1:2 serial dilution of the stock into DMSO. Wells 11 and 12 contained DMSO only, to be used as no compound control and sterility control, with no inoculum added, respectively. After preparing this plate, 2.5 μl from each of the 12 wells was transferred to the wells of a separate 96-well plate, each of which contained 122.5 μl of YPD or YPGE medium, resulting in a set of serial dilutions of compound into growth media in a volume of 125 μl. Then 50 μl from each of these dilutions were transferred onto a third 96-well plate (the assay plate) and mixed with an equal volume (50 μl) of freshly prepared yeast inoculum in YPD or YPGE medium set to provide 0.5×10^3 to 2.5×10^3 colony forming units per 1 mL (wells 1-11), or YPD/YPGE alone (sterility control, well 12). The final compound concentration range of the assay was 0.25-128 μg/ml for test compounds and 0.0625-32 μg/ml for Amphotericin B. The final concentration of DMSO was 1%. Plates were incubated at 30° C. and visually analyzed for turbidity after 24 and 48 hours of incubation. The lowest compound concentration at which no growth was apparent is reported as the MIC (Table 1). All experiments were performed in triplicate.

Setting [4] is: YPD medium, read-out: MIC in YPD (glucose).
Where [5] appears, read: YPGE medium, read-out: MIC in YPGE (glycerol).

Take `O=C1/C(=C/c2cc(O)cc(O)c2)Oc2cc(O)cc(O)c21` [APY-014, (Z)-2-(3,5-Dihydroxybenzylidene)-4,6-dihydroxybenzofuran-3(2H)-one]: in test [1], the IC50 came out at 266 ± 37 µM and the “In vitro inhibitory activity, SAR statement (in words)” value is on record as “nearly complete loss of activity”. This compound also had a Ki in test [2] of 251 ± 31 µM. Further, the MIC in test [3] (setting [4]) is more than 128 µg/mL. The MIC in test [3] (setting [5]) is more than 128 µg/mL.
In the case of `Cc1ccncc1-c1ccc2oc(C(=O)c3cc(O)c(O)c(O)c3)cc2c1` [APY-081, 5-{[5-(4-Methylpyridin-3-yl)-1-benzofuran-2-yl]carbonyl}benzene-1,2,3-triol], the IC50 in test [1] turned out to be 6.8 ± 1.1 µM. This compound yielded a Ki in test [2] of 5.3 ± 0.2 µM. The MIC in test [3] (setting [4]) was more than 128 µg/mL; in test [3] (setting [5]), 32 µg/mL (≈ 88.6 µM).
Regarding `O=C(c1cc(O)c(O)c(O)c1)c1cc2cc(-c3ccc(CO)cc3)ccc2o1` [APY-084, 5-({5-[4-(Hydroxymethyl)phenyl]-1-benzofuran-2-yl}carbonyl)benzene-1,2,3-triol], the IC50 in test [1] worked out at 0.9 ± 0.1 µM. Besides, in test [2], the Ki was found to be 1.3 ± 0.4 µM. Besides, the MIC in test [3] (setting [4]) is more than 128 µg/mL; in test [3] (setting [5]) it was 16 to 32 µg/mL (≈ 42.5 to 85 µM).
On the same counts, the results for `Br.CCN(CC)Cc1ccc(-c2ccc3oc(C(=O)c4cc(O)c(O)c(O)c4)cc3c2)cc1` [APY-090, 5-[(5-{4-[(Diethylamino)methyl]phenyl}-1-benzofuran-2-yl)carbonyl]benzene-1,2,3-triol hydrobromide] are 2.1 ± 0.4 µM, 0.37 ± 0.04 µM, more than 128 µg/mL and 64 µg/mL.
On to `CCCCNS(=O)(=O)c1ccc(-c2ccc(-c3nc(-c4cc(O)c(O)c(O)c4)cs3)cc2)cc1` [APY-093, N-Butyl-4-{4-[4-(3,4,5-trihydroxyphenyl)-1,3-thiazol-2-yl]phenyl}benzene-1-sulfonamide], for which, in test [1], the IC50 is 86 ± 3 µM and the “In vitro inhibitory activity, SAR statement (in words)” value is recorded as “substantial loss of activity”. The Ki in test [2] was determined as 53 ± 5 µM. For the same compound, the MIC in test [3] (setting [4]) is more than 128 µg/mL. For the same compound, in test [3] (setting [5]), the MIC was more than 128 µg/mL.
Take `CC(=O)c1ccc(-c2ccc3oc(C(=O)c4cc(O)c(O)c(O)c4)cc3c2)cc1` [APY-101, 1-(4-{2-[(3,4,5-Trihydroxyphenyl)carbonyl]-1-benzofuran-5-yl}phenyl)ethan-1-one]: in test [1], the IC50 worked out at 1.5 ± 0.1 µM. The compound further returned a Ki in test [2] of 2.1 ± 0.2 µM. The MIC in test [3] (setting [4]) is more than 128 µg/mL; in test [3] (setting [5]), 32 µg/mL (≈ 82.4 µM).
